Results on 59 sequences are retold here after the supplement of paper PMC11208160.
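Note: IS621 recombinase and bridge RNA in Escherichia coli cells.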

The data set is described as follows: recombinant barcode read abundance after kanamycin selection (control-corrected) (log10(CPM+1)); higher = more efficient recombination; sequences stand for … in AGTGCAGAGAAAATCGGCCAGTTTTCTCTGCCTGCAGTCCGCATGCCGT…AGATTTATGCAGCGGACTGCCTTTCTCCCAAAGTGATAAACCGGACAGTATCATGGACCGGTTTTCCCGGTAATCCGTATTTGCAAGGTTGGTTTCACT; site = the 11-nt target. As to the method:
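Pooled E. coli target-specificity screen for the IS621 bridge recombinase. Each library plasmid pairs an 11-nt target (CT core) with a bridge RNA whose target-binding loop (9-nt LTG + 4-nt RTG) is reprogrammed; the rest of the 177-nt WT IS621 bridge RNA scaffold is fixed. The plasmid is co-electroporated with a WT donor plasmid; recombinase is induced with 0.1 mM IPTG and recombinants are selected on kanamycin. Recombinant barcodes are sequenced, converted to CPM, averaged over two biological replicates and corrected by the unselected control CPM. Molecule = full bridge RNA written as DNA: LTG = specificity nt 1-9, RTG = reverse complement of specificity nt 8-11, in the WT scaffold.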
For the sequence “ACGACTGCTTGGGTTCTAACCTGTTGCCT (site ACGACTGCTAG)”, the “recombinant barcode read abundance (log10)” value worked out at 0.738.

On to “ACGACTGCTTGGGTTCTAACCTGTTGCCT (site ACGACTTCTAG)”, for which the “recombinant barcode read abundance (log10)” value came to 0.247.

For “ACGAGAGCTTGGGTTCTAACCTGTTGCCT (site ACAAGAGCTAG)”, the “recombinant barcode read abundance (log10)” value was 0.92.

In the case of “ACGAGAGCTTGGGTTCTAACCTGTTGCCT (site ACCAGAGCTAG)”, the “recombinant barcode read abundance (log10)” value came out at 0.0692.

Regarding “ACGAGAGCTTGGGTTCTAACCTGTTGCCT (site ACGAGAGCTAG)”, the “recombinant barcode read abundance (log10)” value was determined as 1.11.

For “ACGAGAGCTTGGGTTCTAACCTGTTGCCT (site ACTAGAGCTAG)”, the “recombinant barcode read abundance (log10)” value came out at 0.135.

Consider “ACGAGCCCTTGGGTTCTAACCTGTTGCCA (site ACGAGCCCTTG)”, for which the “recombinant barcode read abundance (log10)” value is 0.666.

For the sequence “ACGAGCCCTTGGGTTCTAACCTGTTGCCA (site ACGCACCCTTG)”, the “recombinant barcode read abundance (log10)” value was found to be 0.151.

On to “ACGAGGACTTGGGTTCTAACCTGTTGCCG (site ACGAAGACTCG)”, for which the “recombinant barcode read abundance (log10)” value was determined as 0.232.

For “ACGAGGACTTGGGTTCTAACCTGTTGCCG (site ACGAGGACTCG)”, the “recombinant barcode read abundance (log10)” value came to 1.09.

Consider “ACGAGTACTTGGGTTCTAACCTGTTGCGG (site ACGAGTACTCA)”, for which the “recombinant barcode read abundance (log10)” value was found to be 0.392.

In the case of “ACGAGTACTTGGGTTCTAACCTGTTGCGG (site ACGAGTACTCC)”, the “recombinant barcode read abundance (log10)” value stood at 1.82.

Take “ACGATTCCTTGGGTTCTAACCTGTTGCTT (site ACGAATCCTAA)”: the “recombinant barcode read abundance (log10)” value turned out to be 0.0108.

Take “ACGATTCCTTGGGTTCTAACCTGTTGCTT (site ACGACTCCTAA)”: the “recombinant barcode read abundance (log10)” value is 0.142.

Regarding “ACGATTCCTTGGGTTCTAACCTGTTGCTT (site ACGAGTCCTAA)”, the “recombinant barcode read abundance (log10)” value was found to be 0.0586.

Take “ACGATTCCTTGGGTTCTAACCTGTTGCTT (site ACGATTCCTAA)”: the “recombinant barcode read abundance (log10)” value amounted to 0.0242.

Take “ACGCAGTCTTGGGTTCTAACCTGTTGCCT (site ACGCAATCTAG)”: the “recombinant barcode read abundance (log10)” value stood at 0.313.

Consider “ACGCAGTCTTGGGTTCTAACCTGTTGCCT (site ACGCACTCTAG)”, for which the “recombinant barcode read abundance (log10)” value was 0.0573.

For the sequence “ACGCAGTCTTGGGTTCTAACCTGTTGCCT (site ACGCAGTCTAG)”, the “recombinant barcode read abundance (log10)” value amounted to 0.798.

With “ACGCAGTCTTGGGTTCTAACCTGTTGCCT (site ACGCATTCTAG)”, the “recombinant barcode read abundance (log10)” value turned out to be 0.129.

Regarding “ACGGACCCTTGGGTTCTAACCTGTTGCAT (site ACGAACCCTAG)”, the “recombinant barcode read abundance (log10)” value is 0.225.

For the sequence “ACGGACCCTTGGGTTCTAACCTGTTGCAT (site ACGGACCCTAT)”, the “recombinant barcode read abundance (log10)” value amounted to 2.82.

Consider “ACGGAGACTTGGGTTCTAACCTGTTGCAT (site ACGGAGACTAT)”, for which the “recombinant barcode read abundance (log10)” value was found to be 2.78.

Regarding “ACGGAGACTTGGGTTCTAACCTGTTGCAT (site GTACTACCTCG)”, the “recombinant barcode read abundance (log10)” value came out at 0.108.

Regarding “ACGGCTCCTTGGGTTCTAACCTGTTGCTG (site ACGACTCCTCA)”, the “recombinant barcode read abundance (log10)” value turned out to be 0.0439.

With “ACGGCTCCTTGGGTTCTAACCTGTTGCTG (site ACGCCTCCTCA)”, the “recombinant barcode read abundance (log10)” value worked out at 0.116.

As to “ACGGCTCCTTGGGTTCTAACCTGTTGCTG (site ACGGCTCCTCA)”, the “recombinant barcode read abundance (log10)” value came to 1.35.

As to “ACGGCTCCTTGGGTTCTAACCTGTTGCTG (site ACGTCTCCTCA)”, the “recombinant barcode read abundance (log10)” value was determined as 0.123.

As to “ACGGGGCCTTGGGTTCTAACCTGTTGCCG (site ACGGGGCCTCG)”, the “recombinant barcode read abundance (log10)” value amounted to 1.88.

For “ACGGGGCCTTGGGTTCTAACCTGTTGCCG (site GTATATACTAA)”, the “recombinant barcode read abundance (log10)” value was determined as 0.116.

Consider “ACGGGTACTTGGGTTCTAACCTGTTGCCA (site AAGGGTTCTTG)”, for which the “recombinant barcode read abundance (log10)” value worked out at 0.355.

In the case of “ACGGGTACTTGGGTTCTAACCTGTTGCCA (site ACGGGTACTTG)”, the “recombinant barcode read abundance (log10)” value stood at 1.02.

Consider “ACGGTTGCTTGGGTTCTAACCTGTTGCCT (site ACGGGTGCTAG)”, for which the “recombinant barcode read abundance (log10)” value came out at 0.434.

In the case of “ACGGTTGCTTGGGTTCTAACCTGTTGCCT (site ACGGTTGCTAG)”, the “recombinant barcode read abundance (log10)” value is 2.22.

As for “ACGTAATCTTGGGTTCTAACCTGTTGCTT (site ACGTAATCTAA)”, the “recombinant barcode read abundance (log10)” value was 0.207.

On to “ACGTAATCTTGGGTTCTAACCTGTTGCTT (site CGGTAATCTAA)”, for which the “recombinant barcode read abundance (log10)” value amounted to 0.246.

As to “ACGTGAACTTGGGTTCTAACCTGTTGCCT (site ACATGAACTAG)”, the “recombinant barcode read abundance (log10)” value was 0.532.

“ACGTGAACTTGGGTTCTAACCTGTTGCCT (site ACCTGAACTAG)”: the “recombinant barcode read abundance (log10)” value worked out at 0.0714.

With “ACGTGAACTTGGGTTCTAACCTGTTGCCT (site ACGTGAACTAG)”, the “recombinant barcode read abundance (log10)” value was found to be 0.416.

“ACGTGAACTTGGGTTCTAACCTGTTGCCT (site ACTTGAACTAG)”: the “recombinant barcode read abundance (log10)” value turned out to be 0.0355.

With “ACGTGTCCTTGGGTTCTAACCTGTTGCGG (site ACGTGTCCTCC)”, the “recombinant barcode read abundance (log10)” value came out at 1.88.

Turning to “ACGTGTCCTTGGGTTCTAACCTGTTGCGG (site GGAGAGACTAT)”, the “recombinant barcode read abundance (log10)” value was 0.242.

“ACGTTGTCTTGGGTTCTAACCTGTTGCCT (site ACATTGTCTAG)”: the “recombinant barcode read abundance (log10)” value turned out to be 1.24.

With “ACGTTGTCTTGGGTTCTAACCTGTTGCCT (site ACCTTGTCTAG)”, the “recombinant barcode read abundance (log10)” value amounted to 0.0624.

Take “ACGTTGTCTTGGGTTCTAACCTGTTGCCT (site ACGTTGTCTAG)”: the “recombinant barcode read abundance (log10)” value worked out at 0.767.

As for “ACGTTGTCTTGGGTTCTAACCTGTTGCCT (site ACTTTGTCTAG)”, the “recombinant barcode read abundance (log10)” value is 0.0891.

For “ACTAAGACTTGGGTTCTAACCTGTTGCTG (site ACTAAGACTCA)”, the “recombinant barcode read abundance (log10)” value is 1.96.

For “ACTAAGACTTGGGTTCTAACCTGTTGCTG (site AGTAAGACTTA)”, the “recombinant barcode read abundance (log10)” value amounted to 0.0302.

Consider “ACTACTCCTTGGGTTCTAACCTGTTGCGA (site ACTACTCCTTC)”, for which the “recombinant barcode read abundance (log10)” value is 0.93.

On to “ACTACTCCTTGGGTTCTAACCTGTTGCGA (site ACTAGTCCTTG)”, for which the “recombinant barcode read abundance (log10)” value came out at 0.119.

With “ACTAGGACTTGGGTTCTAACCTGTTGCGG (site ACTAGGACTAC)”, the “recombinant barcode read abundance (log10)” value was 0.0821.

Regarding “ACTAGGACTTGGGTTCTAACCTGTTGCGG (site ACTAGGACTCC)”, the “recombinant barcode read abundance (log10)” value came to 2.93.

On to “ACTAGGACTTGGGTTCTAACCTGTTGCGG (site ACTAGGACTGC)”, for which the “recombinant barcode read abundance (log10)” value was 0.444.

As to “ACTAGGACTTGGGTTCTAACCTGTTGCGG (site ACTAGGACTTC)”, the “recombinant barcode read abundance (log10)” value is 0.302.

Turning to “ACTAGTCCTTGGGTTCTAACCTGTTGCAT (site ACTAGTCCTAA)”, the “recombinant barcode read abundance (log10)” value was determined as 0.239.

“ACTAGTCCTTGGGTTCTAACCTGTTGCAT (site ACTAGTCCTAC)”: the “recombinant barcode read abundance (log10)” value came to 0.0726.

On to “ACTAGTCCTTGGGTTCTAACCTGTTGCAT (site ACTAGTCCTAG)”, for which the “recombinant barcode read abundance (log10)” value was 0.0896.

In the case of “ACTAGTCCTTGGGTTCTAACCTGTTGCAT (site ACTAGTCCTAT)”, the “recombinant barcode read abundance (log10)” value is 1.29.

In the case of “ACTAGTCCTTGGGTTCTAACCTGTTGCGT (site ACTAGTCCTAA)”, the “recombinant barcode read abundance (log10)” value turned out to be 0.0427.
